# Molecular target: T1, Angiotensin-II-Receptor (Rattus norvegicus, UniProt P25095)
# T1 construct: The tissue (rat's lung) is homogenised in Tris buffer; from tissue; host or cells: rat lung homogenate
# T1 sequence (P25095 1-359): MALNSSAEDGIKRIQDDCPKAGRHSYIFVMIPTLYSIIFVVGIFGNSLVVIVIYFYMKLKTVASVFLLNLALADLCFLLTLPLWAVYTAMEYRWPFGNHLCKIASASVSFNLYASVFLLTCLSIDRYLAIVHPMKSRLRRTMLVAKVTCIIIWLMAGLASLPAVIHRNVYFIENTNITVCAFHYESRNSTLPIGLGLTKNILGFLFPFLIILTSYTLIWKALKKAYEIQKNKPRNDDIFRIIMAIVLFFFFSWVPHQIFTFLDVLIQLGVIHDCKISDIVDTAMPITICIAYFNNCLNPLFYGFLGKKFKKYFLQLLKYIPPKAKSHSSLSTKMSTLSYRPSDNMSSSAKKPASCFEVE
# Experiment: Angiotensin-II-Receptor Bonding ([125I]-angiotensin-II displacement, rat's lung homogenate)
# Type: binding
# Details: 50 pM [125I]-angiotensin-II, 60 minutes at 37° C., pH 7.40
# Method: Description of Method: Angiotensin-II-Receptor Bonding
# The tissue (rat's lung) is homogenised in Tris buffer (50 mMol Tris, 150 mMol NaCl, 5 mMol EDTA, pH 7.40) and centrifuged twice for 20 minutes each time at 20,000×g. The finished pellet is resuspended in incubation buffer (50 mMol Tris, 5 mMol MgCl2, 0.2% BSA, pH 7.40) 1:75, based on the moist weight of the tissue. Each 0.1 ml of homogenate is incubated for 60 minutes at 37° C. with 50 pM [^125 I]-angiotensin-II (NEN, Dreieich, FRG) and increasing concentrations of the test substance in a total volume of 0.25 ml. The incubation is ended by rapid filtration through glass fibre filter mats. The filters are each washed with 4 ml of ice cold buffer (25 mMol Tris, 2.5 mMol MgCl2, 0.1% BSA, pH 7.40). The bound radioactivity is measured in a gamma-counter. The corresponding IC50 value is determined from the dosage-activity curve.
# Substances A to H show the following IC50 values in the test described: […]
row,SMILES,IC50 [nM]
1,"CCCc1nc2c(C)cc(NC(=NC#N)NC)cc2n1Cc1ccc(-c2ccccc2C(=O)O)cc1 [Substance A, 4'-[[2-n-Propyl-4-methyl-6-(2-cyano-3-methyl-guanidino)-1H-benzimidazol-1-yl]-methyl]-biphenyl-2-carboxylic acid]",11
2,"CCCc1nc2c(C)cc(NC(=NC#N)N(C)C)cc2n1Cc1ccc(-c2ccccc2-c2nnn[nH]2)cc1 [Substance B, 4'-[[2-n-propyl-4-methyl-6-(2-cyano-3,3-dimethyl-guanidino) -1H-benzimidazol-1-yl]-methyl]-2-(1H-tetrazol-5-yl)-biphenyl]",3
3,"CCCc1nc2c(C)cc(NC(=C(C#N)C#N)N(C)C)cc2n1Cc1ccc(-c2ccccc2C(=O)O)cc1 [Substance C, 4'-[[2-n-propyl-4-methyl-6-(2,2-dicyano-1-dimethylamino-etheneamino) -1H-benzimidazol-1-yl]-methyl]-biphenyl-2-carboxylic acid]",64
4,"CCCc1nc2c(C)cc(NC(=C[N+](=O)[O-])N(C)C)cc2n1Cc1ccc(-c2ccccc2C(=O)O)cc1 [Substance D, 4'-[[2-n-propyl-4-methyl-6-(1-dimethylamino-2-nitro-etheneamino) -1H-benzimidazol-1-yl]methyl]-biphenyl-2-carboxylic acid]",13
5,"CCCc1nc2c(C)cc(NC(=NS(N)(=O)=O)NC)cc2n1Cc1ccc(-c2ccccc2C(=O)O)cc1 [Substance E, 4'-[[2-n-propyl-4-methyl-6-(3-methyl-2-amidosulphonylguanidino) -1H-benzimidazol-1-yl]methyl]-biphenyl-2-carboxylic acid]",56
6,"CCCc1nc2c(C)cc(NC(=C[N+](=O)[O-])N(C)C)cc2n1Cc1ccc(-c2ccccc2-c2nnn[nH]2)cc1 [Substance F, 4'-[[2-n-propyl-4-methyl-6-(1,1-dimethylamino-2-nitro-etheneamino) -1H-benzimidazol-1-yl]-methyl]-2-(1H-tetrazol-5-yl)-biphenyl]",2
7,"CCc1nc2c(C)cc(Nc3c(N(C)C)c(=O)c3=O)cc2n1Cc1ccc(-c2ccccc2C(=O)O)cc1 [Substance G, 4'-[[2-ethyl-4-methyl-6-[(2-dimethylamino-3,4-dioxo-1-cyclobuten-1-yl) -amino]-1H-benzimidazol-1-yl]-methyl]-biphenyl-2-carboxylic acid]",17
8,"CCc1nc2c(C)cc(NC(=NS(C)(=O)=O)N(C)C)cc2n1Cc1ccc(-c2ccccc2-c2nnn[nH]2)cc1 [Substance H, 4'-[[2-ethyl-4-methyl-6-(3,3-dimethyl-2-methylsulphonyl-guanidino) -1H-benzimidazol-1-yl]methyl]-2-(1H-tetrazol-5-yl)-biphenyl]",4

# — patent US5521177A, “Benzimidazoles, pharmaceutical compositions containing these compounds and processes for preparing them” (Dr. Karl Thomae GmbH, priority 1992, dated 1996)
